The text below walks through data of ChEMBL document CHEMBL1201862, “PubChem BioAssay data set” (2004).

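Five compound concentrations were applied to cells in 96-well plates for 48 hours; endpoints were derived by simple linear interpolation of the resulting dose-response curve. The concentration for 50% growth inhibition is given as GI50.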 The source made the active and inactive calls. No stated cut-off is given here; in the data, active = GI50 up to about 1.1 µM and inactive = higher. Some results are limits rather than exact numbers.

Some test systems named below: MDA-N; A498; HOP-62; MCF7; NCI-H23; SK-MEL-2; PC-3; SNB-75; M14; NCI-H522; MDA-MB-435; SF-268; IGROV-1; CCRF-CEM; LOX IMVI; Hs-578T; T47D; 786-0; OVCAR-4; RXF 393.
Experiment in all cases: growth of human tumour cells (NCI), 48 h

`C=CC(C)(C)c1c(OC)oc2ccc(OC)c(C)c2c1=O`: the GI50 in the assay with MDA-N, in the assay with A498, with HOP-62, with MCF7, in the assay with NCI-H23 and in the assay on SK-MEL-2 was > 100 µM (inactive) in each case. For the same compound, the GI50 in the assay on PC-3 is 78.7 µM (inactive); in the assay on SNB-75 it was 89.5 µM (inactive); in the assay with M14, > 100 µM (inactive); in the assay with NCI-H522, 98.2 µM (inactive); with MDA-MB-435, > 100 µM (inactive); with SF-268, > 100 µM (inactive). In addition, the GI50 in the assay with IGROV-1 is > 100 µM (inactive); in the assay with CCRF-CEM, > 100 µM (inactive); in the assay on LOX IMVI it was > 100 µM (inactive); with Hs-578T, > 100 µM (inactive); in the assay on T47D it was 56.4 µM (inactive); with 786-0, > 100 µM (inactive).

As to `Cn1nnc2c3c(N(CCO)CCO)ccnc3ccc21`, the GI50 with MDA-N is > 100 µM (inactive); in the assay on HOP-62, 47.2 µM (inactive); in the assay on MCF7, 47.9 µM (inactive); in the assay with NCI-H23, 97.9 µM (inactive); with SK-MEL-2, > 100 µM (inactive); in the assay with PC-3, 65.6 µM (inactive). Besides, the GI50 is > 100 µM (inactive) in the assay with SNB-75; > 100 µM (inactive) with M14; > 10 µM (inactive) in the assay on NCI-H522; > 100 µM (inactive) with MDA-MB-435; 87.5 µM (inactive) in the assay with SF-268; > 100 µM (inactive) with OVCAR-4. For the same compound, the GI50 with IGROV-1 is > 100 µM (inactive); in the assay with CCRF-CEM, > 100 µM (inactive); in the assay on LOX IMVI it was > 100 µM (inactive); in the assay on Hs-578T, > 100 µM (inactive); with RXF 393 it was > 100 µM (inactive); with T47D, 59.3 µM (inactive). Further, in the assay on 786-0, the GI50 is > 100 µM (inactive).

With `COC(=O)c1c(O)ccc2c1c1cc3ccccc3c(O)c1n2Cc1ccccc1Cl`, the GI50 was 23.7 µM (inactive) with MDA-N; > 100 µM (inactive) with A498; 26.1 µM (inactive) in the assay with HOP-62; 30.3 µM (inactive) with MCF7; 18.4 µM (inactive) with NCI-H23; 17.7 µM (inactive) in the assay on SK-MEL-2. The GI50 with PC-3 was 30 µM (inactive); with M14, 23.4 µM (inactive); in the assay with NCI-H522, 8.26 µM (inactive); in the assay on MDA-MB-435 it was 18.5 µM (inactive); with SF-268, 19.3 µM (inactive); in the assay on OVCAR-4, 11.6 µM (inactive). In addition, the GI50 with IGROV-1 is 19.4 µM (inactive); in the assay with CCRF-CEM it was 34.7 µM (inactive); in the assay on Hs-578T it was 27.1 µM (inactive); with RXF 393 it was 23 µM (inactive); with T47D it was 12.2 µM (inactive); with 786-0 it was 22.3 µM (inactive).

For the compound `O=C(OCC1OC2OC(c3ccccc3)(n3ccc4c([N+](=O)[O-])ccnc43)OC2C1OC(=O)c1ccccc1)c1ccccc1` (stereo not drawn), the GI50 in the assay with MDA-N, in the assay with A498, in the assay with HOP-62, in the assay on MCF7, in the assay on NCI-H23 and in the assay on SK-MEL-2 was > 100 µM (inactive) in each case. The GI50 in the assay with PC-3, in the assay with M14, in the assay on MDA-MB-435, with OVCAR-4, in the assay on IGROV-1 and with CCRF-CEM was > 100 µM (inactive) throughout. Moreover, the GI50 with LOX IMVI was > 100 µM (inactive); in the assay on Hs-578T, 64.7 µM (inactive); in the assay on T47D, 35 µM (inactive); in the assay with 786-0 it was > 100 µM (inactive).

Turning to `CC1(C)CC2C(=O)c3ccccc3NC2c2ccccc21` (stereo not drawn), the GI50 in the assay with MDA-N was 0.32 µM (active); in the assay on A498, 6.21 µM (inactive); in the assay with HOP-62 it was 3.75 µM (inactive); in the assay on MCF7, 4.33 µM (inactive); in the assay on NCI-H23 it was 4.98 µM (inactive); in the assay on PC-3 it was 3.6 µM (inactive). In addition, the GI50 in the assay with SNB-75 is 4.18 µM (inactive); with M14, 5.28 µM (inactive); in the assay with NCI-H522 it was 1.53 µM (inactive); with MDA-MB-435, 0.326 µM (active); in the assay on SF-268 it was 14.6 µM (inactive); with OVCAR-4 it was 57 µM (inactive). The GI50 is 7.13 µM (inactive) with IGROV-1; 4.34 µM (inactive) in the assay on CCRF-CEM; 4.76 µM (inactive) with LOX IMVI; 2.87 µM (inactive) with Hs-578T; 1.87 µM (inactive) with RXF 393; 4.51 µM (inactive) in the assay with T47D. Also, the GI50 in the assay with 786-0 was 3.94 µM (inactive).

As for `CCOC(=O)C(Cc1ccc(OC(=O)OC(C)(C)C)cc1)NC(=O)OC(C)(C)C` (stereo not drawn), the GI50 in the assay with MDA-N is > 100 µM (inactive); with HOP-62, > 100 µM (inactive); with MCF7, > 100 µM (inactive); with NCI-H23, > 100 µM (inactive); with SK-MEL-2 it was > 100 µM (inactive); in the assay on PC-3, 34.5 µM (inactive). Also, the GI50 is 17.1 µM (inactive) with SNB-75; 26.5 µM (inactive) in the assay with M14; > 100 µM (inactive) in the assay with NCI-H522; 38.2 µM (inactive) in the assay with MDA-MB-435; 65.2 µM (inactive) in the assay on SF-268; > 100 µM (inactive) in the assay on OVCAR-4. The GI50 in the assay with IGROV-1 is 50.1 µM (inactive); in the assay on CCRF-CEM it was 21.9 µM (inactive); in the assay on LOX IMVI it was 44.1 µM (inactive); in the assay on Hs-578T, 47.5 µM (inactive); in the assay with RXF 393, 53.2 µM (inactive); with T47D, 29 µM (inactive). The GI50 in the assay on 786-0 is 34.8 µM (inactive).

As for `CC1=CC(=O)/C(=C/NC(=S)C(N)=S)C(=O)O1`, the GI50 with MDA-N, in the assay with HOP-62, in the assay on MCF7, with NCI-H23, with SK-MEL-2 and with PC-3 was > 100 µM (inactive) each time. The GI50 was 19 µM (inactive) in the assay on SNB-75; > 100 µM (inactive) in the assay with M14; > 100 µM (inactive) with NCI-H522; > 100 µM (inactive) in the assay on MDA-MB-435; > 100 µM (inactive) with SF-268; > 100 µM (inactive) in the assay with OVCAR-4. In addition, the GI50 in the assay with IGROV-1 was > 100 µM (inactive); in the assay on CCRF-CEM, 44 µM (inactive); in the assay on LOX IMVI, > 100 µM (inactive); with Hs-578T, > 100 µM (inactive); in the assay on RXF 393 it was > 100 µM (inactive); with T47D it was > 100 µM (inactive). Also, in the assay with 786-0, the GI50 was > 100 µM (inactive).

Regarding `C/C(=C/C(=O)Nn1c(Cc2ccccc2)n[nH]c1=O)C(=O)O`, the GI50 in the assay with MDA-N, with HOP-62, with MCF7, in the assay with NCI-H23, in the assay with SK-MEL-2 and with PC-3 was > 100 µM (inactive) in each case. Moreover, the GI50 in the assay on SNB-75, in the assay with M14, in the assay on NCI-H522, with MDA-MB-435, in the assay with SF-268 and in the assay with OVCAR-4 was > 100 µM (inactive) in each case. Besides, the GI50 with IGROV-1, in the assay on CCRF-CEM, with LOX IMVI, with Hs-578T, in the assay on RXF 393 and with T47D was > 100 µM (inactive) in each case. The GI50 with 786-0 is > 100 µM (inactive).

Take `COc1ccc(/C=C2/C(=O)N(/C=C3\C(=O)Oc4ccccc4C3=O)/C(=N/C(C)=O)N2C)cc1OC`: the GI50 in the assay on MDA-N, with HOP-62, in the assay on MCF7, in the assay with NCI-H23, in the assay on SK-MEL-2 and in the assay with PC-3 was > 100 µM (inactive) each time. Besides, the GI50 was 45.9 µM (inactive) with SNB-75; > 100 µM (inactive) in the assay on M14; > 100 µM (inactive) with NCI-H522; > 100 µM (inactive) in the assay on MDA-MB-435; > 100 µM (inactive) in the assay on SF-268; > 100 µM (inactive) in the assay with OVCAR-4. The GI50 in the assay on IGROV-1, with CCRF-CEM, with LOX IMVI, in the assay on Hs-578T, in the assay with RXF 393 and in the assay on T47D was > 100 µM (inactive) each time. The GI50 in the assay on 786-0 was > 100 µM (inactive).

Consider `CCOP(C)(=O)C(N)Cc1ccc(OC)c(OC)c1` (stereo not drawn), for which the GI50 with MDA-N, with A498, in the assay on HOP-62, in the assay with MCF7, in the assay on NCI-H23 and with PC-3 was > 100 µM (inactive) throughout. The GI50 in the assay on SNB-75, with M14, in the assay with NCI-H522, in the assay on MDA-MB-435, in the assay on SF-268 and in the assay with OVCAR-4 was > 100 µM (inactive) each time. Besides, the GI50 in the assay with IGROV-1, in the assay on CCRF-CEM, with LOX IMVI, with Hs-578T, with RXF 393 and in the assay on T47D was > 100 µM (inactive) each time. Besides, in the assay on 786-0, the GI50 is > 100 µM (inactive).

For `COC(=O)c1cc(/C=C\c2cc(OC)ccc2OC)ccc1OC`, the GI50 in the assay on MDA-N is 17.7 µM (inactive); in the assay with A498, 28.7 µM (inactive); in the assay with HOP-62 it was 25.6 µM (inactive); in the assay with MCF7 it was 25.6 µM (inactive); in the assay on NCI-H23, 43.3 µM (inactive); in the assay with SK-MEL-2 it was 24.9 µM (inactive). Moreover, the GI50 in the assay with PC-3 was 26.1 µM (inactive); in the assay on M14, 26.1 µM (inactive); in the assay on NCI-H522 it was 19.9 µM (inactive); in the assay with MDA-MB-435, 8.81 µM (inactive); in the assay on SF-268 it was 32.7 µM (inactive); with OVCAR-4, 33.6 µM (inactive). In addition, the GI50 is 13.7 µM (inactive) in the assay on IGROV-1; 55.1 µM (inactive) with CCRF-CEM; 24 µM (inactive) with LOX IMVI; 40.4 µM (inactive) in the assay on Hs-578T; 18.7 µM (inactive) in the assay with T47D; 35.1 µM (inactive) in the assay on 786-0.
